Source: patent US8420052B2, “Imaging agents useful for identifying AD pathology” (Siemens Medical Solutions USA, Inc., priority 2008, dated 2013)

Experiments:
[1] = biological target: 18F-PiB binding sites, amyloid plaque and fibril in human brain slices (Homo sapiens, UniProt P05067); test: Human AD brain slice competition against 18F-PiB (IC50); settings: tracer 18F-PiB; human AD brain slices; blocker 0.01 to 10 uM
Procedure: (§1) The slices were incubated at room temperature for 90 min. The slices were then quickly washed in PBS, followed by 70% EtOH:PBS for 2 min, then 30% EtOH:PBS for 2 min and then quickly washed with PBS. The slices were dried for 30 min and then exposed on autoradiographic film for 20 min. The brain slices were then removed from the slide and the radioactivity counted in a gamma counter. The percentage of blocking versus the concentrations of blocker was then plotted, and IC50 was calculated based on the curve.

[2] = biological target: 18F-W372 binding sites, amyloid plaque and fibril in human brain slices (Homo sapiens, UniProt P05067); test: Human AD brain slice competition against 18F-W372 (IC50); settings: tracer 18F-W372, blocker 0.01 to 10 uM
Sequence of 18F-W372 binding sites, amyloid plaque and fibril in human brain slices (P05067 whole entry): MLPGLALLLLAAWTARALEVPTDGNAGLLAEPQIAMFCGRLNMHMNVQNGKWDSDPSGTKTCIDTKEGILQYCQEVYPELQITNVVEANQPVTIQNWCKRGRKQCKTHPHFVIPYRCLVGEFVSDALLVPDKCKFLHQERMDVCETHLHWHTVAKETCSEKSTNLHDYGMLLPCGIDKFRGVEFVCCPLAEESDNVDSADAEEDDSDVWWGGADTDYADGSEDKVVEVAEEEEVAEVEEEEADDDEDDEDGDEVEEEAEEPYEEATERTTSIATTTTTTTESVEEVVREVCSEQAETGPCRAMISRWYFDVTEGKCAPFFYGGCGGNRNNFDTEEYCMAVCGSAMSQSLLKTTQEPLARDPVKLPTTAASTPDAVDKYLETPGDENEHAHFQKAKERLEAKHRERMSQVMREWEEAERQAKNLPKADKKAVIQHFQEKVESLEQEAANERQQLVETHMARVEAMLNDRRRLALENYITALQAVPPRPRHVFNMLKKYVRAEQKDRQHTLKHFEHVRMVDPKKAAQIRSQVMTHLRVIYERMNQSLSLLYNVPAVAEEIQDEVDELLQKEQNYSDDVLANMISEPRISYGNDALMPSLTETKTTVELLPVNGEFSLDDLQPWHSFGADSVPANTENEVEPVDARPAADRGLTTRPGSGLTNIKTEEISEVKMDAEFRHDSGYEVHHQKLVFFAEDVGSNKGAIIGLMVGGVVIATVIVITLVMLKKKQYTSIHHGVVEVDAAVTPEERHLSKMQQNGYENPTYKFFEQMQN
Procedure: as §1

[3] = test system: amyloid plaques and fibrils in human brain slices; test: Human brain slice competition assay using autoradiography; format: binding; settings: radiolabeled tracer approx. 20 uCi, 90 min rt, lower = more displacement; for _max low dose (percent dose remaining relative to control with no blocker): blocker 0.25 uM; for _max high dose (percent dose remaining relative to control with no blocker): blocker 2.5 uM
Procedure: Human Brain Slice Competition Assay Using Autoradiography
Briefly, 5 micron thick human brain slices from regions of the brain bearing high amyloid plaque and fibril burden were incubated with approximately 20 uCi of a radiolabeled tracer in 2.5%:2.5%:95% DMSO:EtOH:PBS in the presence of blocker (2.5 and 0.25 uM total concentration) or absence of blocker (control). The slices were incubated at rt for 90 min. The slices were then quickly washed in PBS, followed by 70% EtOH:PBS for 2 min, then 30% EtOH:PBS for 2 min and then quickly washed with PBS. The slices were dried for 30 min and then exposed on autoradiographic film for 20 min. The brain slices were then removed from the slide and the radioactivity counted in a gamma counter. The percent dose remaining, relative to a control with no blocker, at 0.25 uM is represented in the “_max low dose” column. The percent dose remaining, relative to a control with no blocker, at 2.5 uM is represented in the “_max high dose” column.

Sequence of 18F-PiB binding sites, amyloid plaque and fibril in human brain slices (P05067 672-711 limits assumed): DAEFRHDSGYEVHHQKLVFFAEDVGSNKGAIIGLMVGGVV

Structure (SMILES): COc1ccc2c(n1)sc1nc(-c3ccc(F)cc3)cn12 [Compound W332]
- IC50 [1]: 79 nM

Structure (SMILES): COc1ccc2c(n1)oc1nc(-c3ccc(F)nc3)cn12 [Compound W393]
- IC50 [2]: 170 nM

Structure (SMILES): Oc1ccc2c(c1)[nH]c1cc(NCCF)ccc12 [w78]
- _max low dose (percent dose remaining relative to control with no blocker) [3]: 99.49%
- _max high dose (percent dose remaining relative to control with no blocker) [3]: 63.32%

Structure (SMILES): O=C(/C=C/C=C/c1ccccc1)c1cccs1 [Compound W24]
- _max low dose (percent dose remaining relative to control with no blocker) [3]: 55.16%
- _max high dose (percent dose remaining relative to control with no blocker) [3]: 23.51%

Structure (SMILES): CN(CCCCF)c1ccc2c(c1)[nH]c1cc(O)ccc12 [CB14]
- _max low dose (percent dose remaining relative to control with no blocker) [3]: 114.19%
- _max high dose (percent dose remaining relative to control with no blocker) [3]: 49.02%

Structure (SMILES): N#CC1c2ccc(O)cc2N2C=CC=CC12 (centres unmarked) [Compound W99]
- _max low dose (percent dose remaining relative to control with no blocker) [3]: 87.14%
- _max high dose (percent dose remaining relative to control with no blocker) [3]: 76.06%

Structure (SMILES): COc1ccc2c(c1)sc1nc(-c3ccc(F)cc3)cn12 [Compound W119]
- _max high dose (percent dose remaining relative to control with no blocker) [3]: 7.85%

Structure (SMILES): FCCOc1cccc(-c2cc3ccccn3c2)c1 [Compound W84]
- _max low dose (percent dose remaining relative to control with no blocker) [3]: 97.22%
- _max high dose (percent dose remaining relative to control with no blocker) [3]: 40.32%

Structure (SMILES): CNc1ccc(-c2ccc3scnc3c2)cc1 [Compound W189, 4-(benzo[d]thiazol-5-yl)-N-methylaniline]
- _max high dose (percent dose remaining relative to control with no blocker) [3]: 9.53%

Structure (SMILES): CN(CCOCCOCCF)c1ccc2c(c1)[nH]c1cc(O)ccc12 [Compound W101]
- _max low dose (percent dose remaining relative to control with no blocker) [3]: 81.33%
- _max high dose (percent dose remaining relative to control with no blocker) [3]: 73.62%

Structure (SMILES): Oc1cccc(-c2cc3ccccn3c2)c1 [Compound W73]
- _max low dose (percent dose remaining relative to control with no blocker) [3]: 66.38%
- _max high dose (percent dose remaining relative to control with no blocker) [3]: 35.16%

Structure (SMILES): c1ccc2c(c1)[nH]c1cnccc12 [Compound W67]
- _max low dose (percent dose remaining relative to control with no blocker) [3]: 101.83%
- _max high dose (percent dose remaining relative to control with no blocker) [3]: 94.93%

Structure (SMILES): COc1ccc2c(c1)sc1nc(-c3ccc(F)nc3)cn12 [Compound W388]
- IC50 [2]: 150 nM

Structure (SMILES): CNc1ccc2c(c1)[nH]c1cc(OCc3ccccc3)ccc12 [Compound W104]
- _max low dose (percent dose remaining relative to control with no blocker) [3]: 48.35%
- _max high dose (percent dose remaining relative to control with no blocker) [3]: 34.77%

Structure (SMILES): Oc1ccc(-c2cc3ccccn3c2)cc1 [Compound W103]
- _max low dose (percent dose remaining relative to control with no blocker) [3]: 35.38%
- _max high dose (percent dose remaining relative to control with no blocker) [3]: 3.50%

Structure (SMILES): Nc1ccc2[nH]c3ccc(OCc4ccccc4)cc3c2c1 [Compound W60]
- _max low dose (percent dose remaining relative to control with no blocker) [3]: 105.87%
- _max high dose (percent dose remaining relative to control with no blocker) [3]: 115.14%

Structure (SMILES): CN(C)c1ccc2c3ccc(OCCF)cc3n(CCF)c2c1 [Compound W102]
- _max low dose (percent dose remaining relative to control with no blocker) [3]: 91.92%
- _max high dose (percent dose remaining relative to control with no blocker) [3]: 92.00%

Structure (SMILES): CNc1ccc(-c2nc3ccccc3s2)cc1 [BTA1, reference compound]
- _max low dose (percent dose remaining relative to control with no blocker) [3]: 33.66%
- _max high dose (percent dose remaining relative to control with no blocker) [3]: 17.80%

Structure (SMILES): COc1ccc2c(n1)sc1nc(-c3cnc(F)cn3)cn12 [Compound W392, 7-methoxy-2(2-fluoropyrazin-5-yl)imidazo[2,1-b]8-pyridinothiazole]
- IC50 [2]: 210 nM

Structure (SMILES): Cn1c2ccccc2c2ccc(OCCOCCOCCF)cc21 [CB6]
- _max low dose (percent dose remaining relative to control with no blocker) [3]: 111.02%
- _max high dose (percent dose remaining relative to control with no blocker) [3]: 113.69%

Structure (SMILES): O=c1sc2ccccc2n1/C=C/c1ccccc1 [Compound W88]
- _max low dose (percent dose remaining relative to control with no blocker) [3]: 29.58%
- _max high dose (percent dose remaining relative to control with no blocker) [3]: 7.65%

Structure (SMILES): Nc1ccc2c(c1)oc1ccccc12 [Compound W20]
- _max low dose (percent dose remaining relative to control with no blocker) [3]: 95.11%
- _max high dose (percent dose remaining relative to control with no blocker) [3]: 43.52%

Structure (SMILES): CC(=O)n1c2ccccc2c2ccc(OCCOCCOCCF)cc21 [CB17]
- _max low dose (percent dose remaining relative to control with no blocker) [3]: 91.06%
- _max high dose (percent dose remaining relative to control with no blocker) [3]: 62.03%

Structure (SMILES): CNc1ccc2c(c1)[nH]c1cc(OCCOCCOCCF)ccc12 [CB4]
- _max low dose (percent dose remaining relative to control with no blocker) [3]: 54.17%
- _max high dose (percent dose remaining relative to control with no blocker) [3]: 16.96%

Structure (SMILES): CN(C)c1ccc2c(c1)[nH]c1cc(OCCOCCOCCF)ccc12 [CB7]
- _max low dose (percent dose remaining relative to control with no blocker) [3]: 42.64%
- _max high dose (percent dose remaining relative to control with no blocker) [3]: 15.14%

Structure (SMILES): CNc1ccc2[nH]c3ccc(OCCOCCOCCF)cc3c2c1 [CB8]
- _max low dose (percent dose remaining relative to control with no blocker) [3]: 95.89%
- _max high dose (percent dose remaining relative to control with no blocker) [3]: 108.49%

Structure (SMILES): CN(C)c1ccc(/C=C2/C(=O)Nc3ccccc32)cc1 [Compound W12]
- _max low dose (percent dose remaining relative to control with no blocker) [3]: 105.11%
- _max high dose (percent dose remaining relative to control with no blocker) [3]: 45.98%

Structure (SMILES): COc1ccc(-n2c(=O)sc3ccccc32)cc1 [UG470, 3-(4-methoxyphenyl)benzo[d]thiazol-2(3H)-one]
- _max low dose (percent dose remaining relative to control with no blocker) [3]: 81.29%
- _max high dose (percent dose remaining relative to control with no blocker) [3]: 79.87%

Structure (SMILES): Nc1ccc2c(c1)[nH]c1cc(OCc3ccccc3)ccc12 [Compound W42]
- _max low dose (percent dose remaining relative to control with no blocker) [3]: 49.95%
- _max high dose (percent dose remaining relative to control with no blocker) [3]: 17.60%

Structure (SMILES): c1ccc2c(c1)[nH]c1cc(OCCOCCOCCOc3ccc4c(c3)[nH]c3ccccc34)ccc12 [Compound W70]
- _max low dose (percent dose remaining relative to control with no blocker) [3]: 88.20%
- _max high dose (percent dose remaining relative to control with no blocker) [3]: 89.53%

Structure (SMILES): CC(=O)c1ccc2[nH]c(=O)sc2c1 [Compound W92]
- _max low dose (percent dose remaining relative to control with no blocker) [3]: 112.87%
- _max high dose (percent dose remaining relative to control with no blocker) [3]: 88.58%

Structure (SMILES): CN(CCF)c1ccc(/C=C2/C(=O)Nc3ccccc32)cc1 [OX-2, (E)-3-(4-((2-fluoroethyl)(methyl)amino)benzylidene)indolin-2-one]
- _max low dose (percent dose remaining relative to control with no blocker) [3]: 68.22%
- _max high dose (percent dose remaining relative to control with no blocker) [3]: 82.78%

Structure (SMILES): COc1cc2c(cc1N)oc1ccccc12 [Compound W33]
- _max low dose (percent dose remaining relative to control with no blocker) [3]: 82.52%
- _max high dose (percent dose remaining relative to control with no blocker) [3]: 36.72%

Structure (SMILES): O=CNc1ccc2c(c1)[nH]c1cc(OCCOCCOCCF)ccc12 [CB10]
- _max low dose (percent dose remaining relative to control with no blocker) [3]: 69.29%
- _max high dose (percent dose remaining relative to control with no blocker) [3]: 21.60%

Structure (SMILES): CNc1ccc(-c2nc3ccc(OC)cc3s2)cn1 [Compound W184]
- _max high dose (percent dose remaining relative to control with no blocker) [3]: 8.05%

Structure (SMILES): COc1ccc2c(n1)sc1nc(-c3ccc(F)c(O)c3)cn12 [Compound W389]
- IC50 [1]: 130 nM

Structure (SMILES): COc1ccc2c(c1)oc1nc(-c3ccc(F)cn3)cn12 [Compound W380, 7-methoxy-2-(5-fluoro-2-pyridyl)-imidazo[2,1-b]benzoxazole]
- IC50 [1]: 73 nM

Structure (SMILES): COc1ccc2cc(-c3ccn[nH]3)ccc2c1 [Compound W1]
- _max low dose (percent dose remaining relative to control with no blocker) [3]: 70.48%
- _max high dose (percent dose remaining relative to control with no blocker) [3]: 35.38%

Structure (SMILES): N#Cc1ccc(/C=C2\C(=O)Nc3ccc(F)cc32)cc1 [Compound W79]
- _max low dose (percent dose remaining relative to control with no blocker) [3]: 92.77%
- _max high dose (percent dose remaining relative to control with no blocker) [3]: 96.90%

Structure (SMILES): FCCOCCOCCOc1ccc2c(c1)[nH]c1sc3ccccc3c12 [Compound W94]
- _max low dose (percent dose remaining relative to control with no blocker) [3]: 103.76%
- _max high dose (percent dose remaining relative to control with no blocker) [3]: 40.74%

Structure (SMILES): CN(C)c1ccc(/C=C2\C(=O)Nc3ccc(F)cc32)cc1 [Compound W71]
- _max low dose (percent dose remaining relative to control with no blocker) [3]: 104.61%
- _max high dose (percent dose remaining relative to control with no blocker) [3]: 88.00%

Structure (SMILES): c1ccc2c(c1)Cn1c-2nc2ccccc21 [Compound W81]
- _max low dose (percent dose remaining relative to control with no blocker) [3]: 96.06%
- _max high dose (percent dose remaining relative to control with no blocker) [3]: 81.94%

Structure (SMILES): CN(C)c1ccc(-c2ncc(/C=C/c3ccc(O)cc3)s2)cc1 [UG-4-69, (E)-4-(2-(2-(4-(dimethylamino)phenyl)thiazol-5-yl)vinyl)phenol]
- _max low dose (percent dose remaining relative to control with no blocker) [3]: 69.79%
- _max high dose (percent dose remaining relative to control with no blocker) [3]: 31.02%
